Measurements reported in patent US20110130405A1, “SUBSTITUTED QUINAZOLINES AS BLOOD PLATELET LOWERING AGENTS” (Shire LLC, priority 2008, published 2011).

Legend:
[1] = human; cited from earlier work
[2] = pharmacokinetics in humans; format: in vivo, human; conditions: after anagrelide treatment
Description: The metabolism of anagrelide generally proceeds extremely rapidly, resulting in a less than ideal pharmacokinetic profile of the drug. […] This, combined with the side-effects profile, can lead to poor patient compliance. Furthermore, anagrelide undergoes a large first pass effect (>50%) leading to considerable intersubject variation in achieved exposures and, therefore, potentially variable drug response. Also, exposure to the pharmacologically active metabolite varies dramatically between patients since its formation is dependent on CYP1A, an enzyme whose expression is highly dependent on exposure to inducing agents such as cigarette smoke. Overall, this may result in the need for careful dose titration in patients being treated with anagrelide.

[3] = system: human phosphodiesterase III (PDE III); assay: PDE III inhibition; format: biochemical; conditions: more potent than anagrelide
Description: In early volunteer trials, the most frequently reported adverse effects AEs other than headache were palpitations, postural dizziness and nausea. During patient studies, the most frequently reported drug-related AEs were headache, palpitations, oedema/fluid retention, nausea/vomiting, diarrhea, dizziness and abdominal pain. These effects are all likely to arise from the secondary, cardiovascular pharmacology associated with anagrelide resulting from its inhibitory effects on human phosphodiesterase III (PDE III). […] Inhibition of myocardial PDE III leads to positive inotropy (increasing of the force of contractions of the heart), increased chronotropy (increase in heart rate), and peripheral vasodilatation. Such cardiovascular manifestations of this inhibition are typically seen with the classical positive inotropes, milrinone and enoximone, and exploited in the short-term acute treatment of congestive heart failure. However, in the treatment of a so-called silent disease (i.e., asymptomatic) such as ET, the cardiovascular side-effects of palpitations and tachycardia associated with anagrelide limit its utility and a significant proportion of patients—reportedly between 25 and 50%—fail to tolerate the drug during long term treatment.

[4] = system: human megakaryocytopoiesis; conditions: cited from earlier work
[5] = system: erythroid or myelomonocytic differentiation; conditions: stimulated by erythropoietin or granulocyte-macrophage colony-stimulating factor; cited from earlier work
[6] = molecular target: human phosphodiesterase III (PDE III); conditions: cited from earlier work

Row | in vivo exposure relative to parent drug [2] | potency as PDE III inhibitor relative to anagrelide [3] | SMILES | typical half-life [1] [h] | potency of inhibition of megakaryocytopoiesis relative to parent drug ([4]; compared with anagrelide) | effect on erythroid or myelomonocytic differentiation [5] | first pass effect [1] [%] | IC50 [6] [nM] | IC50 ([4]; in vitro, dose-dependent, read-out: estimated IC50, inhibition of TPO-induced megakaryocytopoiesis) [nM]
1 | 2-3 fold | over 40 fold | O=C1NC2=Nc3ccc(Cl)c(Cl)c3CN2C1O (stereo not drawn) [3-hydroxyanagrelide] | 2.5 | no more potent than the parent drug |  |  |  | 
2 |  |  | O=C1CN2Cc3c(ccc(Cl)c3Cl)N=C2N1 [Anagrelide, 6,7-dichloro-1,5-dihydroimidazo[2,1-b]-quinazolin-2(3H)-one] |  |  | does not affect | > 50 | ~29 | ~26
3 |  |  | Cc1[nH]c(=O)c(C#N)cc1-c1ccncc1 [milrinone] |  |  |  |  | 170 to 350 | 
